Measurements taken from US8765750B2, “Piperazine compound having a PGDS inhibitory effect” (Taiho Pharmaceutical Co., Ltd., priority 2010, dated 2014).
Like-named read-outs stand apart in the source and are kept apart here.

Tests used:
[1] = test system: PGD2 production in the nasal cavities of guinea pigs with antigen-induced rhinitis; experiment: PGD2 production inhibiting action in the nasal cavities of guinea pigs with antigen-induced rhinitis; format: in vivo; conditions: 30 mg/kg orally 1 hour before induction of rhinitis reaction; washing 30 minutes after induction; * = significance level below 0.05 vs control group
Protocol: A physiological saline solution containing 1 mg/mL of ovalbumin was subcutaneously injected into the back of 5-week-old male Std: Hartley guinea pigs in an amount of 1 mL/body for active sensitization (initial sensitization). One week and two weeks after initial sensitization, 20 μL of a physiological saline solution containing 10 mg/mL of ovalbumin was instilled into each nasal cavity using a micropipette (sensitization by nasal administration). Three weeks after initial sensitization, 20 μL of a physiological saline solution containing 10 mg/mL of ovalbumin was instilled into each nasal cavity using a micropipette to induce a rhinitis reaction.
30 minutes after the induction of a rhinitis reaction, the nasal cavities were washed under pentobarbital sodium anesthesia. A nasal cavity washing liquid (phosphate buffered saline containing 3 mM of EDTA and 10 μM of indomethacin) was flushed using a Peristaltic Pump (Gilson, Inc.) in the direction from the trachea to the upper respiratory tract at a flow rate of 1 mL/min, and the liquid flowing out from the nasal cavities was collected for 1 minute. The collected liquid was centrifuged to separate the supernatant as the nasal cavity washing fluid. The concentration of PGD2 in the nasal cavity washing fluid was determined using an EIA kit (Prostaglandin D2-MOX EIA kit, Cayman Chemical).
The test compound (30 mg/kg) was orally administered 1 hour before induction of a rhinitis reaction. A formula to calculate the rate of decrease in PGD2 in the nasal cavity washing fluid is shown below. Rate (%) of decrease in PGD2 in the nasal cavity washing fluid={(PGD2 concentration in the control group−PGD2 concentration in the compound-administered group)÷(PGD2 concentration in the control group−PGD2 concentration in the normal group)}×100
8 or more cases were obtained from each group to determine whether expression of the PGD2 production inhibiting action occurred, and the PGD2 concentration in the nasal cavity washing fluid was compared between the control group and each compound-administered group. […] When the significance level was below 0.05, the action was considered to be present and indicated by a symbol (*) in the table. Reference Example 18, known as an H-PGDS inhibitor, was used as a positive control substance.

human H-PGDS = human H-PGDS (Homo sapiens (Human), UniProt O60760); experiment: Hematopoietic prostaglandin D synthase (H-PGDS) inhibiting action; format: biochemical; conditions: for inhibition at 0.1 µM: read-out: Inhibition Rate (%) 0.1 μM
Chain of human H-PGDS (O60760 whole entry): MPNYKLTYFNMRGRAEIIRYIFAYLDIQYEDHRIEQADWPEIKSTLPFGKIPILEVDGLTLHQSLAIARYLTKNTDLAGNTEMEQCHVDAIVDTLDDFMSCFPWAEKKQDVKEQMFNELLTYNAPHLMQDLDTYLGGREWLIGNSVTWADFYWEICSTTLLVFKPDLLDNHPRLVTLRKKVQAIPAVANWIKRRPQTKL
Protocol: The test was carried out according to the method of Urade, Y. et al. (J. Biol. Chem., 262, 3820-3825, (1987)). More specifically, the reaction mixture (49 μL) containing 100 mM Tris-HCl (pH 8.0), 1 mM reduced glutathione, 0.1 mg/mL γ-globulin, and human H-PGDS (q.s.), and a compound (final concentration: 0.01-100 μM) was preincubated at 25° C. for 5 minutes. A DMSO solution (final concentration: 1%) was added to the solvent control group. Subsequently, 1 μL of [^14C] prostaglandin H2 (final concentration: 10 μM) was added to start the reaction. One minute after the start of the reaction, 250 μL of a reaction stop solution (diethylether/methanol/1 M citric acid (30/4/1) at a temperature of −20° C. was added to stop the reaction. After the reaction was stopped, 50 μL of the upper-layer portion (organic solvent layer) was applied to a TLC plate and developed at −20° C. for 45 minutes (developing solvent: diethylether/methanol/acetic acid (90/2/1)). After drying the TLC plate, the TLC plate was exposed to an imaging plate for 1 to 24 hours, and the radioactivity corresponding to prostaglandin D2 (PGD2) was analyzed using an image analyzer (produced by Fujifilm Corporation). […]

[2] = compound at 0.1 μM, relative to the control group, human H-PGDS, [14C] prostaglandin H2 10 μM
[3] = inhibition concentration at 50% relative to H-PGDS, read-out: IC50

IC50 (human H-PGDS; [3]) [nM] | SMILES | Rate (%) of decrease in PGD2 in the nasal cavity washing fluid [1] | inhibition at 0.1 µM (human H-PGDS; [2]) [%] | IC50 (human H-PGDS) [nM] | Inhibition Rate (%) 0.1 μM (human H-PGDS; [2]) [%]
41 | Cn1cccc1C(=O)N1CCN(C(=O)NC2CCN(c3ccc(C(=O)N4CCCCC4)cc3)CC2)CC1 [Compound 5, 4-((1-methylpyrrol-2-yl)-carbonyl)-N-(1-(4-(1-piperidinylcarbonyl)phenyl)-piperidin-4-yl)-1-piperazinecarboxamide] | 88.0* % | 67.6 |  | 
 | O=C(Nc1ccc(C(F)(F)F)cc1)N1CCN(C(=O)c2cccc(F)n2)CC1 [Reference Example 17, 4-(6-fluoropyridine-2-carbonyl)-piperazine-1-carboxylic acid-(4-trifluoromethylphenyl)-amide, reference compound] | 31.0% | 1.8 | 5820 | 
 | CON(C)C(=O)c1[nH]c(C)c(-c2nc3ccc(C(=O)c4ccccc4)cc3[nH]2)c1C [Reference Example 18] | 77.0* % |  |  | 
 | Cc1ccc2nc(NC(=O)N3CCN(C(=O)c4cccc(F)c4)CC3)sc2c1 [Reference Example 14, 4-(3-fluorobenzoyl)-piperazine-1-carboxylic acid-(6-methylbenzothiazol-2-yl)-amide, reference compound] | 26.6% | 27.9 |  | 
 | O=C(NCCN1CCOCC1)c1ccc(N2CCC(NC(=O)N3CCN(C(=O)c4ccccc4)CC3)CC2)cc1 [Reference Example 11, 4-benzoyl-N-(1-(4-(2-morpholinoethylcarbamoyl)-phenyl)-piperidin-4-yl)-1-piperazinecarboxamide, reference compound] |  | 30 |  | 
 | O=C(Nc1nc2ccc(Br)cc2s1)N1CCN(C(=O)c2cccc(F)c2)CC1 [Reference Example 12, 4-(3-fluorobenzoyl)-piperazine-1-carboxylic acid-(6-bromobenzothiazol-2-yl)-amide, reference compound] | 7.9% | 45.1 |  | 
 | O=C(Nc1nc2ccc(Cl)cc2s1)N1CCN(C(=O)c2cccc(F)c2)CC1 [Reference Example 16, 4-(3-fluorobenzoyl)-piperazine-1-carboxylic acid-(6-chlorobenzothiazol-2-yl)-amide, reference compound] | −38.1% | 33.8 |  | 
 | O=C(NCCN1CCOCC1)c1ccc(N2CCC(NC(=O)N3CCN(C(=O)c4cccs4)CC3)CC2)cc1 [Reference Example 4, 4-((thiophen-2-yl)-carbonyl)-N-(1-(4-(2-morpholinoethylcarbamoyl)-phenyl)-piperidin-4-yl)-1-piperazinecarboxamide, reference compound] |  | 29.2 |  | 
 | CCn1cccc1C(=O)N1CCN(C(=O)NC2CCN(c3ccc(CCn4ccnn4)cc3)CC2)CC1 [Compound 16, 4-((1-ethylpyrrol-2-yl)-carbonyl)-N-(1-(4-(2-(1,2,3-triazol-1-yl)-ethyl)-phenyl)-piperidin-4-yl)-1-piperazinecarboxamide] |  | 68.4 |  | 
 | COc1ccc2nc(NC(=O)N3CCN(C(=O)c4cccc(F)c4)CC3)sc2c1 [Reference Example 15, 4-(3-fluorobenzoyl)-piperazine-1-carboxylic acid-(6-methoxybenzothiazol-2-yl)-amide, reference compound] | −27.4% | 20.9 |  | 
31 | Cn1cccc1C(=O)N1CCN(C(=O)NC2CCN(c3ccc(C(=O)N4CCOCC4)cc3)CC2)CC1 [Compound 4, 4-((1-methylpyrrol-2-yl)-carbonyl)-N-(1-(4-(4-morpholinylcarbonyl)phenyl)-piperidin-4-yl)-1-piperazinecarboxamide] |  | 69.8 |  | 
 | Cn1cccc1C(=O)N1CCN(C(=O)C2CCN(c3ccc(C(=O)O)cn3)CC2)CC1 [Compound 13, 6-(4-(4-((1-methylpyrrol-2-yl)-carbonyl)-1-piperazinecarbamoyl)-piperidin-1-yl)-nicotinic acid] |  |  |  | 52.8
 | Cc1cc2nc(NC(=O)N3CCN(C(=O)c4cccc(F)c4)CC3)sc2cc1C [Reference Example 13, 4-(3-fluorobenzoyl)-piperazine-1-carboxylic acid-(5,6-dimethylbenzothiazol-2-yl)-amide, reference compound] | 3.9% | 31.6 |  | 
